Experiment [1] has as its target T1, HCV polymerase 1A (Δ21 NS5B, H77) (Hepatitis C virus genotype 1a, UniProt P27958).
T1 construct: 20 to 50 nM Δ21 NS5B
The experiment can be described thus: biochemical. Particulars: IC50 1a. Put shortly: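 Incorporation of 1 μM ^3H-UTP, with 20 μM each of CTP and ATP on 5 nM template RNA, ran 2–4 h at room temperature. Spermine-precipitated product was filtered and scintillation-counted. IC50 came from tight-binding non-linear regression of cpm against inhibitor concentration.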

Experiment [2] concerns the target T2, HCV polymerase 1B (Δ21 NS5B, BK) (Hepatitis C virus genotype 1b, UniProt P26663).
T2 construct: 20 to 50 nM Δ21 NS5B
The experiment can be described thus: biochemical. Put shortly: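 Δ21 NS5B (genotype 1b, BK […]) preincubated 15 min RT with inhibitor, 2 mM MnCl2, pH 7.4, 60–125 μM GTP; started with 20 μM CTP/ATP, 1 μM 3H-UTP, 5 nM template RNA, run 2–4 h RT. Spermine-precipitated RNA filter-captured, scintillation counted; IC50 from tight-binding (Morrison) fit.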

Experiment [3] deals with genotype 1a-H77 subgenomic replicon cell line. The experiment can be described thus: microbe, parasite or virus in culture. The format is cell-based, HCV. Particulars: read-out: EC50 1a.
For experiment [4], the system named is genotype 1b-Con1 subgenomic replicon cell line. Kind of experiment: microbe, parasite or virus in culture. The format is cell-based, HCV. Particulars: read-out: EC50 1b.

Where two headings read alike, the source gives them in different places.

T1 sequence (P27958 2421-2990, stated change not applied): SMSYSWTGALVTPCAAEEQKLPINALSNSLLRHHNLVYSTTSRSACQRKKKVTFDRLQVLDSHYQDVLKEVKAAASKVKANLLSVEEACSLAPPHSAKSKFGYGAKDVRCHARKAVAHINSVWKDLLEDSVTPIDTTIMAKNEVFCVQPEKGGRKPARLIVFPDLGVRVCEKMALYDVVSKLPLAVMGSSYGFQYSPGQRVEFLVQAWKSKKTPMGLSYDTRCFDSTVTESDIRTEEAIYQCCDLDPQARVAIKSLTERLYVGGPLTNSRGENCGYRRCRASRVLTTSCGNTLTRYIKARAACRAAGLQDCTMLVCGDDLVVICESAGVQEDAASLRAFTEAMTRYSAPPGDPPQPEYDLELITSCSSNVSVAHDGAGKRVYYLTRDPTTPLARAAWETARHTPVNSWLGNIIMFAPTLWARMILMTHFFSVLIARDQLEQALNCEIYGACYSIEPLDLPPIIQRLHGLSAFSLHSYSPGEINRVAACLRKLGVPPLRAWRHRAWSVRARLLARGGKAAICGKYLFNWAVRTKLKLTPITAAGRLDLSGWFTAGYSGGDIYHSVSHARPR
T2 sequence (P26663 2420-2989, stated change not applied): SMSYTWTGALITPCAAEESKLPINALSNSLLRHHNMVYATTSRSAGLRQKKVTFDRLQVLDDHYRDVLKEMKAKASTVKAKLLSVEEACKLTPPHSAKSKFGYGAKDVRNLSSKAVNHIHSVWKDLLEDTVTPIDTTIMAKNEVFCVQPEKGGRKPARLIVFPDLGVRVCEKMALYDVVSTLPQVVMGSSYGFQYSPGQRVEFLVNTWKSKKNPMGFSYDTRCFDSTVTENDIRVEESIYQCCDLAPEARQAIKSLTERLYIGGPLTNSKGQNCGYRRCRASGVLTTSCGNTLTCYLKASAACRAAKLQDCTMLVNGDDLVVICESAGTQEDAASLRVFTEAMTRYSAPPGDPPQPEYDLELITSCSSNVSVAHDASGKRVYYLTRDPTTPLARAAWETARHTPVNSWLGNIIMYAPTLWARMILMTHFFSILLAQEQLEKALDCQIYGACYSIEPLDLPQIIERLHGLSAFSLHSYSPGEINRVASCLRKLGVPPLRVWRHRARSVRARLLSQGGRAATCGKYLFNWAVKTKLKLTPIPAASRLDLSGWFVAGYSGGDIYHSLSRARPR

As a reminder, the IC50 is the point on the concentration scale where inhibition reaches its midpoint. For orientation: EC50 means the concentration at which the effect is half-maximal. Consider `COc1c(C(=O)Nc2ccc(OS(C)(=O)=O)cc2)cc(N2CCC(=O)NC2=O)cc1C(C)(C)C` [IA-L3-1.41, 4-(3-tert-butyl-5-(2,4-dioxotetrahydropyrimidin-1(2H)-yl)-2-methoxybenzamido)phenyl methanesulfonate], for which the figures for the IC50 in experiment [1] and in experiment [2] were 0.1 to 1 µM and more than 1 µM, respectively. Further, the EC50 in experiment [3] (Hepatitis C virus) is more than 1 µM; in experiment [4] (Hepatitis C virus), 0.1 to 1 µM.
Take `COc1c(-c2cc(F)c(/C=N/NS(C)(=O)=O)c(F)c2)cc(N2CCC(=O)NC2=O)cc1C(C)(C)C` [IA-L0-1.3, (E)-N′-((3′-tert-butyl-5′-(2,4-dioxotetrahydropyrimidin-1(2H)-yl)-3,5-difluoro-2′-methoxybiphenyl-4-yl)methylene)methanesulfonohydrazide]: the IC50 in experiment [1] and in experiment [2] was 0.1 to 1 µM each time. For the same compound, the EC50 in experiment [3] (Hepatitis C virus) and in experiment [4] (Hepatitis C virus) was 0.1 to 1 µM throughout.
Regarding `COc1c(-c2ccc3c(CN(C)S(C)(=O)=O)csc3c2)cc(-n2ccc(=O)[nH]c2=O)cc1C(C)(C)C` [IB-L0-2.21, N-((6-(3-tert-butyl-5-(2,4-dioxo-3,4-dihydropyrimidin-1(2H)-yl)-2-methoxyphenyl)benzo[b]thiophen-3-yl)methyl)-N-methylmethanesulfonamide], the IC50 in experiment [1] and in experiment [2] was 0.01 to 0.1 µM throughout. For the same compound, the EC50 was 0.1 to 1 µM in experiment [3] (Hepatitis C virus) and 0.01 to 0.1 µM in experiment [4] (Hepatitis C virus).
Regarding `COc1c(C(=O)Nc2ccc(OCC(N)=O)cc2)cc(N2CCC(=O)NC2=O)cc1C(C)(C)C` [IA-L3-1.39, N-(4-(2-amino-2-oxoethoxy)phenyl)-3-tert-butyl-5-(2,4-dioxotetrahydropyrimidin-1(2H)-yl)-2-methoxybenzamide], the values for the IC50 in experiment [1] and in experiment [2] were more than 1 µM and 0.1 to 1 µM, respectively. The EC50 in experiment [3] (Hepatitis C virus) and in experiment [4] (Hepatitis C virus) was more than 1 µM in each case.
With `COc1c(C(=O)Nc2ccc(NS(=O)(=O)c3ccccc3)cc2)cc(N2CCC(=O)NC2=O)cc1C(C)(C)C` [IA-L3-1.60, 3-tert-butyl-5-(2,4-dioxotetrahydropyrimidin-1(2H)-yl)-2-methoxy-N-(4-(phenylsulfonamido)phenyl)benzamide], the IC50 in experiment [1] and in experiment [2] was 0.01 to 0.1 µM each time. For the same compound, the values for the EC50 in experiment [3] (Hepatitis C virus) and in experiment [4] (Hepatitis C virus) were 0.1 to 1 µM and 0.01 to 0.1 µM, respectively.
As to `CC(C)(C)c1cc(N2CCC(=O)NC2=O)cc(C(=O)Nc2ccc(NS(C)(=O)=O)cc2)c1O` [IA-L3-1.6, 3-tert-butyl-5-(2,4-dioxotetrahydropyrimidin-1(2H)-yl)-2-hydroxy-N-(4-(methylsulfonamido)phenyl)benzamide], the IC50 in experiment [1] was 0.01 to 0.1 µM; in experiment [2], less than 0.01 µM. The values for the EC50 in experiment [3] (Hepatitis C virus) and in experiment [4] (Hepatitis C virus) were 0.1 to 1 µM and 0.01 to 0.1 µM, respectively.
Regarding `CCc1cc(N2CCC(=O)NC2=O)cc(C(=O)Nc2ccc(NS(C)(=O)=O)cc2)c1OC` [IA-L3-1.112, 5-(2,4-dioxotetrahydropyrimidin-1(2H)-yl)-3-ethyl-2-methoxy-N-(4-(methylsulfonamido)phenyl)benzamide], the IC50 in experiment [1] and in experiment [2] was 0.1 to 1 µM in each case. In addition, the figures for the EC50 in experiment [3] (Hepatitis C virus) and in experiment [4] (Hepatitis C virus) were more than 1 µM and 0.1 to 1 µM, respectively.
For `CC(C)(C)OC(=O)N(Cc1csc(NC(=O)c2cc(N3CCC(=O)NC3=O)cc(C(C)(C)C)c2O)c1)S(C)(=O)=O` [IA-L3-1.98, tert-butyl (5-(3-tert-butyl-5-(2,4-dioxotetrahydropyrimidin-1(2H)-yl)-2-hydroxybenzamido)thiophen-3-yl)methyl(methylsulfonyl)carbamate], the IC50 in experiment [1] was more than 1 µM; in experiment [2] it was 0.1 to 1 µM. Besides, the 50% effective concentration (EC50) in experiment [3] (Hepatitis C virus) was more than 1 µM; in experiment [4] (Hepatitis C virus), 0.1 to 1 µM.
With `CNS(=O)(=O)Cc1ccc(NC(=O)c2cc(N3CCC(=O)NC3=O)cc(C(C)(C)C)c2OC)cc1` [IA-L3-1.31, 3-tert-butyl-5-(2,4-dioxotetrahydropyrimidin-1(2H)-yl)-2-methoxy-N-(4-(N-methylsulfamoylmethyl)phenyl)benzamide], the IC50 in experiment [1] and in experiment [2] was more than 1 µM in each case. Also, the EC50 in experiment [3] (Hepatitis C virus) and in experiment [4] (Hepatitis C virus) was more than 1 µM throughout.
For `CC(C)(C)c1cc(N2CCC(=O)NC2=O)cc(C(=O)Nc2ccc(NS(=O)(=O)Cc3ccccc3)cc2)c1O` [IA-L3-1.12, 3-tert-butyl-5-(2,4-dioxotetrahydropyrimidin-1(2H)-yl)-2-hydroxy-N-(4-(phenylmethyl-sulfonamido)phenyl)benzamide], the results for the IC50 in experiment [1] and in experiment [2] were 0.1 to 1 µM and 0.01 to 0.1 µM, respectively. Also, the EC50 in experiment [3] (Hepatitis C virus) and in experiment [4] (Hepatitis C virus) was more than 1 µM each time.
With `CC(C)(C)c1cc(-c2ccc3c(c2)CC/C3=N\NS(C)(=O)=O)cc(-n2ccc(=O)[nH]c2=O)c1` [IB-L0-2.7, (E)-N′-(5-(3-tert-butyl-5-(2,4-dioxo-3,4-dihydropyrimidin-1(2H)-yl)phenyl)-2,3-dihydro-1H-inden-1-ylidene)methanesulfonohydrazide], the IC50 in experiment [1] and in experiment [2] was 0.01 to 0.1 µM each time. Further, the values for the EC50 in experiment [3] (Hepatitis C virus) and in experiment [4] (Hepatitis C virus) were 0.1 to 1 µM and 0.01 to 0.1 µM, respectively.
Consider `COc1c(/C=C\c2ccc(NS(C)(=O)=O)cc2)cc(N2CCC(=O)NC2=O)cc1C(C)(C)C` [IA-L1-1.20, (Z)—N-(4-(3-tert-butyl-5-(2,4-dioxotetrahydropyrimidin-1(2H)-yl)-2-methoxystyryl)phenyl)methanesulfonamide], for which the IC50 in experiment [1] is less than 0.01 µM; in experiment [2] (read-out: IC50 1b, HCV polymerase 1b) it was 0.01 to 0.1 µM. Besides, the EC50 in experiment [3] and in experiment [4] was 0.01 to 0.1 µM each time.
Regarding `CC(C)(C)c1cc(N2CCC(=O)NC2=O)cc(C(=O)Nc2ccc(CC(=O)O)cc2)c1O` [IA-L3-1.15, 2-(4-(3-tert-butyl-5-(2,4-dioxotetrahydropyrimidin-1(2H)-yl)-2-hydroxybenzamido)phenyl)-acetic acid], the figures for the IC50 in experiment [1] and in experiment [2] were more than 1 µM and 0.1 to 1 µM, respectively. Moreover, the EC50 in experiment [3] (Hepatitis C virus) and in experiment [4] (Hepatitis C virus) was more than 1 µM in each case.
As to `CC(C)(C)c1cc(N2CCC(=O)NC2=O)cc(C(=O)Nc2ccccc2)c1O` [IA-L3-1.3, 3-tert-butyl-5-(2,4-dioxotetrahydropyrimidin-1(2H)-yl)-2-hydroxy-N-phenylbenzamide], the results for the IC50 in experiment [1] and in experiment [2] were more than 1 µM and 0.1 to 1 µM, respectively. Further, the EC50 in experiment [3] (Hepatitis C virus) and in experiment [4] (Hepatitis C virus) was more than 1 µM each time.
For the compound `COc1c(I)cc(-n2ccc(=O)[nH]c2=O)cc1C#Cc1ccc(NS(C)(=O)=O)cc1C` [IB-L2-1.15, N-(4-((5-(2,4-dioxo-3,4-dihydropyrimidin-1(2H)-yl)-3-iodo-2-methoxyphenyl)ethynyl)-3-methylphenyl)methanesulfonamide], the half-inhibitory concentration (IC50) in experiment [1] and in experiment [2] was 0.1 to 1 µM throughout. Besides, the EC50 in experiment [3] (Hepatitis C virus) was more than 1 µM; in experiment [4] (Hepatitis C virus), 0.1 to 1 µM.
Turning to `COc1ccc(-c2cc(N3CCC(=O)NC3=O)cc(C(C)(C)C)c2OC)cc1/C=N/NS(C)(=O)=O` [IA-L0-1.5, (E)-N′-((3′-tert-butyl-5′-(2,4-dioxotetrahydropyrimidin-1(2H)-yl)-2′,4-dimethoxy-biphenyl-3-yl)methylene)methanesulfonohydrazide], the IC50 in experiment [1] and in experiment [2] was 0.1 to 1 µM in each case. The 50% effective concentration (EC50) in experiment [3] (Hepatitis C virus) and in experiment [4] (Hepatitis C virus) was more than 1 µM each time.
In the case of `COc1c(-c2ccc3c(c2)CC[C@@H]3CNS(C)(=O)=O)cc(-n2ccc(=O)[nH]c2=O)cc1C(C)(C)C` (single isomer, unassigned) [IB-L0-2.9], the IC50 in experiment [1] and in experiment [2] was less than 0.01 µM throughout. In addition, the EC50 in experiment [3] (Hepatitis C virus) and in experiment [4] (Hepatitis C virus) was less than 0.01 µM in each case.
On to `COc1c(-c2ccc(/C=N/NS(C)(=O)=O)cc2)cc(-n2ccc(=O)[nH]c2=O)cc1C(C)(C)C` [IB-L0-1.1, (E)-N′-((3′-tert-butyl-5′-(2,4-dioxo-3,4-dihydropyrimidin-1(2H)-yl)-2′-methoxybiphenyl-4-yl)methylene)methanesulfonohydrazide], for which the IC50 in experiment [1] and in experiment [2] was less than 0.01 µM throughout. The EC50 in experiment [3] (Hepatitis C virus) and in experiment [4] (Hepatitis C virus) was 0.01 to 0.1 µM in each case.
On to `CN(Cc1csc(NC(=O)c2cc(N3CCC(=O)NC3=O)cc(C(C)(C)C)c2O)c1)S(C)(=O)=O` [IA-L3-1.95, 3-tert-butyl-5-(2,4-dioxotetrahydropyrimidin-1(2H)-yl)-2-hydroxy-N-(4-((N-methylmethylsulfonamido)methyl)thiophen-2-yl)benzamide], for which the IC50 fell in the range of 0.1 to 1 µM in experiment [1] and 0.01 to 0.1 µM in experiment [2]. In addition, the EC50 in experiment [3] (Hepatitis C virus) and in experiment [4] (Hepatitis C virus) was more than 1 µM each time.
For the compound `CC(C)(C)c1cc(N2CCC(=O)NC2=O)cc(C(=O)Nc2ccccc2S(C)(=O)=O)c1O` [IA-L3-1.20, 3-tert-butyl-5-(2,4-dioxotetrahydropyrimidin-1(2H)-yl)-2-hydroxy-N-(2-(methylsulfonyl)phenyl)benzamide], the IC50 in experiment [1] is more than 1 µM; in experiment [2], 0.01 to 0.1 µM. Besides, the EC50 in experiment [3] (Hepatitis C virus) and in experiment [4] (Hepatitis C virus) was more than 1 µM throughout.
With `COc1c(C#Cc2cc(F)c(NS(C)(=O)=O)cc2C(F)(F)F)cc(-n2ccc(=O)[nH]c2=O)cc1C(C)(C)C` [IB-L2-1.5, N-(4-((3-tert-butyl-5-(2,4-dioxo-3,4-dihydropyrimidin-1(2H)-yl)-2-methoxyphenyl)ethynyl)-2-fluoro-5-(trifluoromethyl)phenyl)methanesulfonamide], the IC50 in experiment [1] and in experiment [2] was 0.01 to 0.1 µM throughout. Moreover, the EC50 in experiment [3] (Hepatitis C virus) was 0.1 to 1 µM; in experiment [4] (Hepatitis C virus), 0.01 to 0.1 µM.

The values above are taken from patent US8415351B2 (priority 2007, dated 2013).
